pIC50: −log10 of the molar value.
Columns and labels:
RON = molecular target: T1, RON (Homo sapiens, UniProt Q04912); test: sfRON cell mechanistic assay (HeLa), phosphorylated RON ELISA; assay type: cell-based; settings: HeLa cells transfected with sfRON; inhibition of phosphorylated RON; four hours incubation; at least duplicate experiments; read-out: sfRON mech IC50
T1 sequence (Q04912 913-1400): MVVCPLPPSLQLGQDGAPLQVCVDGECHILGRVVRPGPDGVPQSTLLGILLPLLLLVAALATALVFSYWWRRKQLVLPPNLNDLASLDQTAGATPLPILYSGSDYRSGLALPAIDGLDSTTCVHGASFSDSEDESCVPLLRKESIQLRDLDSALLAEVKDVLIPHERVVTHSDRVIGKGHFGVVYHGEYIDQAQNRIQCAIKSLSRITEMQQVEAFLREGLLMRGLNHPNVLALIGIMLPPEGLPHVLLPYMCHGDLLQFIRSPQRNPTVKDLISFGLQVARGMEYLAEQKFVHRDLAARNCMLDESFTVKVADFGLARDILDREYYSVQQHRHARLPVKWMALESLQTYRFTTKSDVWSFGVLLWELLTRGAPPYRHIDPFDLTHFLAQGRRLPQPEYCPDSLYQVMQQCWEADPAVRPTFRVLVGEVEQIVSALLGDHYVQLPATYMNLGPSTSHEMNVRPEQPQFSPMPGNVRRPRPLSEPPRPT
Procedure, shortened: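 HeLa cells transiently transfected with sfRON plasmid, then exposed 4 h at 37 °C to a 6-point compound series (typically 10 μM to 3 nM, 0.5% DMSO). Phospho-RON (pY1238/1239) in lysates measured by sandwich ELISA with luminescence. IC50 from 4-parameter fit of percent-of-DMSO-control data, at least duplicate runs.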

MKN45 cells = test: MKN45 cell proliferation assay (CellTiter-Glo); assay type: cell-based; settings: Homo sapiens, MKN-45, 72 h; MKN45 cell line; 3 days incubation; at least duplicate experiments; read-out: Prolif. IC50

pIC50 (RON) | pIC50 (MKN45 cells) | Structure (SMILES)
6.00 to 6.70 | ≥ 7.30 | CNC(=O)[C@H]1CC[C@H](n2nc(C)c(-c3cnc4[nH]cc([C@H](C)c5c(OC)ccc(F)c5Cl)c4c3)c2C)CC1 [Example 24, trans-4-(4-{3-[(1S)-1-(2-Chloro-3-fluoro-6-methoxyphenyl)ethyl]-1H-pyrrolo[2,3-b]pyridin-5-yl}-3,5-dimethyl-1H-pyrazol-1-yl)-N-methylcyclohexanecarboxamide]
≥ 6.70 | ≥ 7.30 | COc1ccc(F)c(Cl)c1[C@@H](C)c1c[nH]c2ncc(-c3cn([C@H]4CC[C@H](C(=O)N(C)C)CC4)nc3C)cc12 [Example 23, trans-4-(4-{3-[(1S)-1-(2-chloro-3-fluoro-6-methoxyphenyl)ethyl]-1H-pyrrolo[2,3-b]pyridin-5-yl}-3-methyl-1H-pyrazol-1-yl)-N,N-dimethylcyclohexanecarboxamide]
≥ 6.70 | ≥ 7.30 | COc1ccc(F)c(Cl)c1[C@@H](C)c1c[nH]c2ncc(-c3cn([C@H]4CC[C@H](O)CC4)nc3C)cc12 [Example 28, trans-4-(4-{3-[(1S)-1-(2-Chloro-3-fluoro-6-methoxyphenyl)ethyl]-1H-pyrrolo[2,3-b]pyridin-5-yl}-3-methyl-1H-pyrazol-1-yl)cyclohexanol]

Reference: US8445510B2, “Fused bicyclic kinase inhibitors” (OSI Pharmaceuticals, LLC, priority 2011, dated 2013)
